Measurements as given in paper PMC6615261, “Repurposing Azithromycin and Rifampicin Against Gram-Negative Pathogens by Combination With Peptidomimetics” (Frontiers in Cellular and Infection Microbiology, 2019).

How the values were obtained:
MDR E. coli ST131 = test: Screening of peptidomimetic-antibiotic combinations (growth / growth inhibition); type: cell-based, Escherichia coli; design: key to Growth in combination with RIF / Growth in combination with AZM: Growth (+); growth inhibition (–); conditions: for Growth in combination with AZM: peptidomimetic 0.5 μM + azithromycin 1 μg/mL; for Growth in combination with RIF: peptidomimetic 0.5 μM + rifampicin 0.5 μg/mL; for Potentiation in the screening, rifampicin or azithromycin: 0.5 μM peptidomimetic
Protocol: (§1) Minimal inhibitory concentrations (MICs) of peptidomimetics, antibiotics and their combinations were determined by broth microdilution according to the Clinical Laboratory Standards Institute performance standards (Clinical and Laboratory Standards Institute, [2013]). […] Since rifampicin and azithromycin mainly are used to treat infections with Gram-positive pathogens only CLSI clinical breakpoints were available for such bacteria. […] Potentiation of additional antibiotics by peptidomimetics was determined by using commercial 96-well plates containing varied concentrations of standard antibiotics (COMPAN1F; Trek Diagnostic Systems Inc.). The peptidomimetics were added immediately prior to inoculation with pathogen, and then MICs were determined as above. The MICs of peptidomimetic/antibiotic combinations were determined according to the method above, and the concentration ratios were selected based upon checkerboard results with 2:1 and 1:4 ratio of peptidomimetic with rifampicin or azithromycin, respectively. Minimal bactericidal concentrations (MBCs) were determined by using growth-curve assay plates. MIC plates were prepared as above, and then the plates were incubated at 37°C with continuous shaking. Growth was recorded at 10 min intervals as optical density (OD) at 600 nm during 24 h. At 24 h, for wells without growth, a sample was diluted 10-fold in sterile saline (0.9% sodium chloride) and plated onto MHA, following CLSI guidelines (Clinical and Laboratory Standards Institute, [1999]).

K. pneumoniae ST258 = test: as above; type: cell-based, Klebsiella pneumoniae; design: key to Growth in combination with RIF / Growth in combination with AZM: Growth (+); growth inhibition (–); conditions: for Growth in combination with AZM: peptidomimetic 0.5 μM + azithromycin 1 μg/mL; for Growth in combination with RIF: peptidomimetic 0.5 μM + rifampicin 0.5 μg/mL; for Potentiation in the screening, rifampicin or azithromycin: 0.5 μM peptidomimetic
Protocol: as §1

Substance | Growth in combination with AZM (MDR E. coli ST131) | Growth in combination with RIF (MDR E. coli ST131) | Growth in combination with AZM (K. pneumoniae ST258) | Growth in combination with RIF (K. pneumoniae ST258) | Screening result with rifampicin (MDR E. coli ST131; 0.5 μM peptidomimetic + 0.5 μg/mL rifampicin) | Potentiation in the screening, rifampicin or azithromycin (MDR E. coli ST131) | Potentiation in the screening, rifampicin or azithromycin (K. pneumoniae ST258)
(NLys)LG(NLys)IW(NLys)I(Nlys)2LF-NH2 [Peptidomimetic 32] | + | + | + | + |  |  | 
(NLys)W(NLys)LF(NLys)2VL(NLys)VLTTG-NH2 [Peptidomimetic 33] | + | + | + | + |  |  | 
Ac-(Lys-NTrp)8-NH2 [Peptidomimetic 19] | – | + | + | + |  |  | 
Ac-(Lys-βNspe)6-NH2 [Peptidomimetic 6] | – | – | + | + |  |  | 
Ac-(Lys-βNspe)8-NH2 [Peptidomimetic 5] | – | – | + | + |  |  | 
Ac-(Lys-βNspe-hArg-βNspe)2-NH2 [Peptidomimetic 10] | + | – | + | + | potentiated rifampicin activity |  | 
Ac-(NLys-NPhe)8-NH2 [Peptidomimetic 22] | – | – | + | + |  |  | 
Ac-(NLys-Trp)8-NH2 [Peptidomimetic 20] | + | – | + | + |  |  | 
Ac-(azaLys-βNspe-Lys-βNspe)4-NH2 [Peptidomimetic 17] | + | + | + | + |  |  | 
Ac-(bNLys-Trp)8-NH2 [Peptidomimetic 21] | + | – | + | + |  |  | 
Ac-(bNLys-bNPhe)8-NH2 [Peptidomimetic 18] | + | + | + | + |  |  | 
Ac-(hArg-βNPhe)5-NH2 [Peptidomimetic 3] | + | – | + | + |  |  | 
Ac-(hArg-βNPhe)8-NH2 [Peptidomimetic 2] | + | + | + | + |  |  | 
Ac-(hArg-βNchx)6-NH2 [Peptidomimetic 7] | + | + | + | + |  |  | 
Ac-(hArg-βNchx-Lys-βNspe)3-NH2 [Peptidomimetic 8] | + | + | + | + |  |  | 
Ac-(hArg-βNspe)6-(Trp)2-NH2 [Peptidomimetic 16] | + | + | + | + |  |  | 
Ac-(hArg-βNspe)7-NH2 [Peptidomimetic 4] | + | + | + | + |  |  | 
Ac-[(S)-Aoc]-(Lys-βNPhe)6-NH2 [Peptidomimetic 41] | – | – | + | + |  |  | 

Substance | Growth in combination with AZM (MDR E. coli ST131) | Growth in combination with RIF (MDR E. coli ST131) | Growth in combination with AZM (K. pneumoniae ST258) | Growth in combination with RIF (K. pneumoniae ST258) | Screening result with rifampicin (MDR E. coli ST131; 0.5 μM peptidomimetic + 0.5 μg/mL rifampicin) | Potentiation in the screening, rifampicin or azithromycin (MDR E. coli ST131) | Potentiation in the screening, rifampicin or azithromycin (K. pneumoniae ST258)
Cin-(Lys-Phe)8-NH2 [Peptidomimetic 24] | + | + | + | + |  |  | 
Cin-(Lys-βNspe-hArg-βNspe)3-NH2 [Peptidomimetic 27] | + | + | + | + |  | did not exhibit any potentiation activity | did not exhibit any potentiation activity
F5Ph-acetic acid-(5F-Phe)-(Lys-βNspe-hArg-βNspe)3-NH2 [Peptidomimetic 29] | + | + | + | + |  | did not exhibit any potentiation activity | did not exhibit any potentiation activity
G(NLys)W(NLys)2II(NLys)VA(NLys)-NH2 [Peptidomimetic 31] | + | + | + | + |  |  | 
Lau-(Lys-βNPhe)6-NH2 [Peptidomimetic 37] | + | – | + | + |  |  | 
Lau-Dap(Lau)-(Lys-βNspe-hArg-βNspe)3-NH2 [Peptidomimetic 40] | + | + | + | + |  |  | 
Oct-(Lys-βNspe)6-NH2 [Peptidomimetic 35] | + | + | + | + |  |  | 
Oct-[(S)-Aoc]-(Lys-βNphe)6-NH2 [Peptidomimetic 42] | + | + | + | + |  |  | 
Pam-(Lys-βNPhe)6-NH2 [Peptidomimetic 36] | + | + | + | + |  |  | 
Pam-(Lys-βNspe)6-NH2 [Peptidomimetic 34] | + | + | + | + |  |  | 
Pam-(Lys-βNspe-hArg-βNspe)2-NH2 [Peptidomimetic 13] | + | + | + | + |  | did not exhibit any potentiation activity | did not exhibit any potentiation activity
Pam-(Lys-βNspe-hArg-βNspe)3-NH2 [Peptidomimetic 12] | + | + | + | + |  | did not exhibit any potentiation activity | did not exhibit any potentiation activity
Pam-(Lys-βNspe-hArg-βNspe)-NH2 [Peptidomimetic 9] | + | + | + | + |  | did not exhibit any potentiation activity | did not exhibit any potentiation activity
Pam-[(S)-Aoc]-(Lys-βNphe)6-NH2 [Peptidomimetic 11] | + | + | + | + |  |  | 
R(Tbt)R(NPhe) [Peptidomimetic 39] | + | + | + | + |  |  | 
R(Tbt)R(hPhe)-NH2 [Peptidomimetic 38] | + | + | + | + |  |  | 
VNW(NLys)2VL(NLys)2II(NLys)VA(NLys)-NH2 [Peptidomimetic 30] | + | + | + | + |  |  | 
p-CF3-benzoyl-(Lys-Phe)8-NH2 [Peptidomimetic 23] | + | + | + | + |  |  | 
